Measurements taken from patent US11712434B2, “Compound having anti-cancer effect, and preparation method therefor and use thereof” (3D MEDICINES (BEIJING) CO., LTD., priority 2016, dated 2023).
Where “and” joins values, the source holds several entries; their conditions need not be identical. Equal entries are not always repeated. Entries after “also recorded” stand apart in the source; their conditions may differ.

Assay: Plasma stability study of compound 8 in rat plasma
Format: in vitro ADME, SD rat
Conditions: for Residual compound 8 concentration: 37° C., Repeat 1 and 2
Method: The purpose of this example was to investigate the stability of incubation of compound 8 in rat plasma (compound 8 was metabolized to form intermediate compound 12 and Linifanib, intermediate compound 12 was further metabolized to form Linifanib), and the metabolites were quantified and analyzed, and the stability of the incubation system was verified by a positive drug, which provided a reference for the evaluation of the drug-forming properties of the compound.
1. Instruments and Materials • Instrument: API3000 LC/MS, ABI • Materials: Male SD rats (200-250 g), Beijing Vital River • Test sample: positive drug and its metabolites M1 and M2, compound 8 and its metabolite compound 12 and Linifanib.
2. Compound 8 Plasma Stability Study • Test animal • Type: SD rat; Quantity: 2 • Sex: male; weight: 200-250 g;
Experimental Procedure • 1). Animal blood was collected, blood samples were placed in EDTA anticoagulation tubes, centrifuged at 3000 g for 15 min at 4° C., plasma was separated, and 2 blood samples were mixed in equal volumes; • 2). Weighed a certain amount of compound 8 and dissolved in DMSO:MeOH (2:8), prepared into 200 μM mother liquor by purity conversion, and added the compound to plasma to reach a final concentration of 1 μg/mL in plasma. The organic ratio in the system was not more than 0.5%. • 3). Incubated in a 37° C. water bath and set the sampling points to 0, 0.5, 1, 2, 4, 6, 8 h. At each sampling point, 100 μL of each sample was collected and 300 μL of acetonitrile (with internal standard) was added for precipitation, centrifuged at 12,000 rpm for 5 min, and 200 μL of supernatant was taken for analysis by LC-MS/MS. • 4). Configured the standard curve to quantify compound 8, compound 12 and Linifanib

amount of Compound 12 and Linifanib produced by metabolism: extremely small
Residual compound 8 concentration (0 h): 1200 ng/mL and 680 ng/mL
Residual compound 8 concentration (0.5 h): 1190 ng/mL and 1450 ng/mL
Residual compound 8 concentration (1 h): 1460 ng/mL and 1620 ng/mL
Residual compound 8 concentration (2 h): 960 ng/mL and 1040 ng/mL
Residual compound 8 concentration (4 h): 876 ng/mL and 868 ng/mL
Residual compound 8 concentration (6 h): 1110 ng/mL and 1190 ng/mL
Residual compound 8 concentration (8 h): 1200 ng/mL and 680 ng/mL
Compound: Cc1ccc(F)c(NC(=O)Nc2ccc(-c3cccc4[nH]nc(NC(=O)CCCCCCCCCCCNC(=O)C[C@H](N)C(=O)N[C@@H](CCC(=O)N[C@@H](CCC(=O)N[C@@H](CCC(=O)N[C@@H](CCC(=O)O)C(=O)O)C(=O)O)C(=O)O)C(=O)O)c34)cc2)c1 [Compound 8]
stability in plasma (up to 8 h): relatively stable; also recorded: very good
